Laboratory results from patent US12594276B2, “Inhibitors of human immunodeficiency virus replication” (ViiV Healthcare UK (No.5) Limited, priority 2024, dated 2026).
Like-named read-outs stand apart in the source and are kept apart here.

Experiments:
[1] = test system: recombinant NL4-3 virus (nef section replaced with Renilla luciferase gene) in MT-2 cells; test: HIV cell culture assay (antiviral activity, luciferase readout); format: cell-based; conditions: Renilla, NL43, MT-2 cells infected for 4-5 days with recombinant NL4-3 Renilla luciferase virus
In short: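 293T transfection → virus harvest at 2-3 d → titer in MT-2 by luciferase. MT-2 + virus + serial cpd dilutions, 4-5 d. Live-cell luciferase read; EC50 by median effect fit.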

[2] = Compound cytotoxicity, XTT-based colorimetric assay; format: cell-based; conditions: human
In short: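 Uninfected MT2 cells, antiviral-assay protocol without virus; XTT colorimetric readout day 4; CC50 reported.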

[3] = uninfected MT2 cells, day 4, XTT, read-out: CC50

SMILES | EC50 [1] | CC50 at 4 days [2, 3] | CC50 at 4 days [2]
COCCCn1nc(NS(C)(=O)=O)c2c(Cl)ccc(-n3c([C@H](Cc4cc(F)cc(F)c4)NC(=O)Cn4nc(C(F)F)c5c4C(F)(F)[C@@H]4C[C@H]54)nc4nc(C5CCC(F)(F)CC5)cc(NCCNC(C)=O)c4c3=O)c21 (atropisomer, axis not shown; (P)) [Example 432, N-[(1S)-1-[(3P)-3-[4-chloro-3-methanesulfonamido-1-(3-methoxypropyl)-1H-indazol-7-yl]-7-(4,4-difluorocyclohexyl)-5-[(2-acetamidoethyl)amino]-4-oxo-3H,4H-pyrido[2,3-d]pyrimidin-2-yl]-2-(3,5-difluorophenyl)ethyl]-2-[(2S,4R)-9-(difluoromethyl)-5,5-difluoro-7,8-diazatricyclo[4.3.0.0^2,^4]nona-1(6),8-dien-7-yl]acetamide] | 0.182 nM | > 20 nM | –
Cc1cc(C2(F)CCC(F)(F)CC2)nc2nc([C@H](Cc3cc(F)cc(F)c3)NC(=O)Cn3nc(C(F)F)c4c3C[C@@H]3C[C@H]43)n(-c3ccc(Cl)c4c(NS(C)(=O)=O)nn(CCN5C[C@H](F)C[C@H](F)C5)c34)c(=O)c12 (atropisomer, axis not shown; (P)) [Example 571, N-[(1S)-1-[(3P)-3-(4-chloro-1-{2-[(3R,5S)-3,5-difluoropiperidin-1-yl]ethyl}-3-methanesulfonamido-1H-indazol-7-yl)-5-methyl-4-oxo-7-(1,4,4-trifluorocyclohexyl)-3H,4H-pyrido[2,3-d]pyrimidin-2-yl]-2-(3,5-difluorophenyl)ethyl]-2-[(2S,4S)-9-(difluoromethyl)-7,8-diazatricyclo[4.3.0.0^2,^4]nona-1(6),8-dien-7-yl]acetamide] | 0.014 nM | > 20 nM | –
COCCCn1nc(NS(C)(=O)=O)c2c(Cl)ccc(-n3c([C@H](Cc4cc(F)cc(F)c4)NC(=O)Cn4nc(C(F)F)c5c4C(F)(F)[C@@H]4C[C@H]54)nc4nc(C5CCC(F)(F)CC5)cc(CN5C[C@H]6C[C@@H](C5)O6)c4c3=O)c21 (atropisomer, axis not shown; (P)) [Example 531, N-[(1S)-1-[(3P)-3-[4-chloro-3-methanesulfonamido-1-(3-methoxypropyl)-1H-indazol-7-yl]-7-(4,4-difluorocyclohexyl)-5-{[(1R,5S)-6-oxa-3-azabicyclo[3.1.1]heptan-3-yl]methyl}-4-oxo-3H,4H-pyrido[2,3-d]pyrimidin-2-yl]-2-(3,5-difluorophenyl)ethyl]-2-[(2S,4R)-9-(difluoromethyl)-5,5-difluoro-7,8-diazatricyclo[4.3.0.0^2,^4]nona-1(6),8-dien-7-yl]acetamide] | 0.021 nM | – | > 20 nM
Cc1cc(C2CCC(F)(F)CC2)nc2nc([C@H](Cc3cc(F)cc(F)c3)NC(=O)Cn3nc(C(F)F)c4c3C(F)(F)[C@@H]3C[C@H]43)n(-c3ccc(Cl)c4c(NS(C)(=O)=O)nn(CCN5CCCCC5)c34)c(=O)c12 (atropisomer, axis not shown; (P)) [Example 269, N-[(1S)-1-[(3P)-3-{4-chloro-3-methanesulfonamido-1-[2-(piperidin-1-yl)ethyl]-1H-indazol-7-yl}-7-(4,4-difluorocyclohexyl)-5-methyl-4-oxo-3H,4H-pyrido[2,3-d]pyrimidin-2-yl]-2-(3,5-difluorophenyl)ethyl]-2-[(2S,4R)-9-(difluoromethyl)-5,5-difluoro-7,8-diazatricyclo[4.3.0.0^2,^4]nona-1(6),8-dien-7-yl]acetamide] | 0.018 nM | > 50 nM | –
Cc1cc(C2CCC(F)(F)CC2)nc2nc([C@H](Cc3cc(F)cc(F)c3)NC(=O)Cn3nc(C(F)(F)F)c4c3C(F)(F)[C@@H]3C[C@H]43)n(-c3ccc(Cl)c4c(NS(C)(=O)=O)nn(CCN5CCOCC5)c34)c(=O)c12 (atropisomer, axis not shown; (P)) [Example 116, N-[(1S)-1-[(3P)-3-{4-chloro-3-methanesulfonamido-1-[2-(morpholin-4-yl)ethyl]-1H-indazol-7-yl}-7-(4,4-difluorocyclohexyl)-5-methyl-4-oxo-3H,4H-pyrido[2,3-d]pyrimidin-2-yl]-2-(3,5-difluorophenyl)ethyl]-2-[(2S,4R)-5,5-difluoro-9-(trifluoromethyl)-7,8-diazatricyclo[4.3.0.0^2,^4]nona-1(6),8-dien-7-yl]acetamide] | 0.012 nM | > 50 nM | –
COCCCn1nc(NS(C)(=O)=O)c2c(Cl)ccc(-n3c([C@H](Cc4cc(F)cc(F)c4)NC(=O)Cn4nc(C(F)F)c5c4C(F)(F)[C@@H]4C[C@H]54)nc4nc(C5CCC(F)(F)CC5)cc(NCCN5CCC(C)(C)CC5)c4c3=O)c21 (atropisomer, axis not shown; (P)) [Example 523, N-[(1S)-1-[(3P)-3-[4-chloro-3-methanesulfonamido-1-(3-methoxypropyl)-1H-indazol-7-yl]-7-(4,4-difluorocyclohexyl)-5-{[2-(4,4-dimethylpiperidin-1-yl)ethyl]amino}-4-oxo-3H,4H-pyrido[2,3-d]pyrimidin-2-yl]-2-(3,5-difluorophenyl)ethyl]-2-[(2S,4R)-9-(difluoromethyl)-5,5-difluoro-7,8-diazatricyclo[4.3.0.0^2,^4]nona-1(6),8-dien-7-yl]acetamide] | 0.012 nM | > 20 nM | –
Cc1cc(C2(F)CCC(F)(F)CC2)nc2nc([C@H](Cc3cc(F)cc(F)c3)NC(=O)Cn3nc(C(F)(F)F)c4c3C[C@@H]3C[C@H]43)n(-c3ccc(Cl)c4c(NS(C)(=O)=O)nn(CCN5C[C@H](F)C[C@H](F)C5)c34)c(=O)c12 (atropisomer, axis not shown; (P)) [Example 572, N-[(1S)-1-[(3P)-3-(4-chloro-1-{2-[(3R,5S)-3,5-difluoropiperidin-1-yl]ethyl}-3-methanesulfonamido-1H-indazol-7-yl)-5-methyl-4-oxo-7-(1,4,4-trifluorocyclohexyl)-3H,4H-pyrido[2,3-d]pyrimidin-2-yl]-2-(3,5-difluorophenyl)ethyl]-2-[(2S,4S)-9-(trifluoromethyl)-7,8-diazatricyclo[4.3.0.0^2,^4]nona-1(6),8-dien-7-yl]acetamide] | 0.015 nM | > 20 nM | –
CS(=O)(=O)Nc1nn(CCN2CC[C@](F)(C(F)(F)F)C2)c2c(-n3c([C@H](Cc4cc(F)cc(F)c4)NC(=O)Cn4nc(C(F)F)c5c4C(F)(F)[C@@H]4C[C@H]54)nc4nc(C5CCC(F)(F)CC5)ccc4c3=O)ccc(Cl)c12 (atropisomer, axis not shown; (P)) [Example 41] | 0.015 nM | > 50 nM | –
COCCCn1nc(NS(C)(=O)=O)c2c(Cl)ccc(-n3c([C@H](Cc4cc(F)cc(F)c4)NC(=O)Cn4nc(C(F)F)c5c4C(F)(F)[C@@H]4C[C@H]54)nc4nc(C5CCC(F)(F)CC5)cc(NCC5CCOCC5)c4c3=O)c21 (atropisomer, axis not shown; (P)) [Example 431, N-[(1S)-1-[(3P)-3-[4-chloro-3-methanesulfonamido-1-(3-methoxypropyl)-1H-indazol-7-yl]-7-(4,4-difluorocyclohexyl)-5-{[(oxan-4-yl)methyl]amino}-4-oxo-3H,4H-pyrido[2,3-d]pyrimidin-2-yl]-2-(3,5-difluorophenyl)ethyl]-2-[(2S,4R)-9-(difluoromethyl)-5,5-difluoro-7,8-diazatricyclo[4.3.0.0^2,^4]nona-1(6),8-dien-7-yl]acetamide] | 0.01 nM | > 20 nM | –
